The source of these data is US6538106B1, “Compositions and methods for treating infections using analogues of indolicidin” (priority 1996, dated 2003).

Data set [1] in a line: Acute single dose toxicity in isotonic saline (ip, iv, sc). The following applies: 5 days. The format is in vivo, Swiss CD1 mice.
Description: The acute, single dose toxicity of various indolicidin analogues is tested in Swiss CD1 mice using various routes of administration. In order to determine the inherent toxicities of the peptide analogues in the absence of any formulation/delivery vehicle effects, the peptides are all administered in isotonic saline with the final pH between 6 and 7.
After administration, the mice are observed for a period of 5 days.
A further data set is described as follows: Liposome dye release. The format is biochemical. As to the method: In this example, a dye pair consisting of the fluorescent molecule 8-aminonapthalene-1,3,6-trisulfonic acid (ANTS) and its quencher molecule p-xylene-bis-pyridinium bromide (DPX) are used. The mixture of free dye molecules, dye free liposomes, and liposomes containing encapsulated ANTS-DPX are separated by size exclusion chromatography. In the assay, the test peptide is incubated with the ANTS-DPX containing liposomes and the fluorescence due to ANTS release to the outside of the liposome is measured over time.
Using this assay, peptide activity, measured by dye release, is shown to be extremely sensitive to the composition of the liposomes at many liposome to peptide ratios (L/P) (FIG. 7). […] This […] selectivity may mimic that observed […] for bacterial cells in the presence of mammalian cells.
ANTS/DPX can be replaced with fluorescein isothiocyanate-labeled dextran (FD-4), molecular weight 4,400, in the egg PC liposomes.

A further data set concerns E.coli strain ML-35. The format is cell-based. The note with it: valinomycin pre-incubation.
For data set [2], the system named is MSSA (Smith, ATCC # 19640). Nature of the data set: MSSA infection, mouse survival. The format is in vivo, mice. The following applies: formulation D.
For data set [3], the system named is S. epidermidis (ATCC # 12228). Nature of the data set: S. epidermidis infection, mouse survival. The format is in vivo, mice.
A further data set has as its system MRSA (ATCC # 33591). The data set is described as follows: MRSA infection, mouse survival. The note with it: for Percentage of Animals Surviving, Treatment: iv, formulation D. The format is in vivo, mice.
The test system of the next data set is A. calcoaceticus. Nature of the data set: MIC of APS-modified and parent peptides. The following applies: A. calcoaceticus AC002. The format is cell-based.
The test system of the next data set is E. cloacae. Nature of the data set: MIC of APS-modified and parent peptides. The note with it: E. cloacae ECL007. The format is cell-based.
A further data set has as its system E. coli. Nature of the data set: MIC of APS-modified and parent peptides. The format is cell-based. The note with it: E. coli ECO005.
In the next data set the test system is E. faecalis. The data set is described as follows: MIC of APS-modified and parent peptides. The format is cell-based. The procedure: (§1) All biological assays that compare APS-modified peptides with unmodified peptides are performed on an equimolar ratio. The concentration of APS-modified peptides can be determined by spectrophotometric measurement, which is used to normalize concentrations for biological assays.
(§2) APS-modified peptides are at least as potent as the parent peptides in in vitro assays performed as described herein. MIC values against gram positive bacteria are presented for several APS-modified peptides and compared with the values obtained using the parent peptides (Table 22).

The subject of another data set is S. aureus. The data set is described as follows: MIC of APS-modified and parent peptides. The format is cell-based. As to the method:
as §1, §2

The next data set concerns K. pneumoniae. The data set is described as follows: MIC of APS-modified and parent peptides. The format is cell-based. The following applies: K. pneumoniae KP001.
The subject of a further data set is P. aeruginosa. The data set is described as follows: MIC of APS-modified and parent peptides. The format is cell-based. The note with it: P. aeruginosa PA004.
The test system of the next data set is S. maltophilia. Nature of the data set: MIC of APS-modified and parent peptides. The format is cell-based. The note with it: S. maltophilia SMA002.
The next data set deals with S. marcescens. The data set is described as follows: MIC of APS-modified and parent peptides. The format is cell-based. The following applies: S. marcescens SMS003.

Counter-ions that a name gives are not always drawn. Peptide text beside a SMILES is read from it.

In data set [1], `CC[C@H](C)[C@H](N)C(=O)N[C@@H](CC(C)C)C(=O)N[C@@H](CCCCN)C(=O)N[C@@H](CCCCN)C(=O)N[C@@H](Cc1c[nH]c2ccccc12)C(=O)N1CCC[C@H]1C(=O)N[C@@H](Cc1c[nH]c2ccccc12)C(=O)N[C@@H](Cc1c[nH]c2ccccc12)C(=O)N1CCC[C@H]1C(=O)N[C@@H](Cc1c[nH]c2ccccc12)C(=O)N[C@@H](CCCNC(=N)N)C(=O)N[C@@H](CCCNC(=N)N)C(=O)N[C@@H](CCCCN)C(N)=O` [MBI 11CN HCl, I L K K W P W W P W R R K] (H-ILKKWPWWPWRRK-NH2; N-terminus assumed) registered an LD90-100 of 8.0 mg/kg.

With I L K K W P W W P W R R K [MBI 11CN], the “Release of FD-4 (fluorescein isothiocyanate-labeled dextran, MW 4,400)” value in the data set “Liposome dye release” (egg PC liposomes) was “No increase in FD-4 fluorescence is detected”. For the same molecule, in “Liposome dye release” (egg PC liposomes with cholesterol added, even at very high lipid to peptide molar ratios), the “Membrane permeabilizing activity (ANTS/DPX dye release)” value was “virtually abolishes membrane permeabilizing activity”. Further, the “ONPG hydrolysis diminished, cells pre-incubated with valinomycin vs no pre-incubation” value in the data set with E.coli strain ML-35 is listed as “approximately 50%”. For the same molecule, the “mice rescued from MSSA infection” value in data set [2] (35.7 mg/kg ip, 60 minutes post-infection) is reported as 100%. The “activity at lower dose levels” value in data set [2] (dose levels lower than 35.7 mg/kg ip) is “little or no activity”. Besides, the survival of mice result is listed as “Efficacy is observed at all three dose levels” in data set [3] (iv, formulation D, treatment 15 minutes post-infection); “less activity” in [3] (iv, formulation D, treatment 30 minutes post-infection); “no significant effect” in data set [3] (iv, formulation D, treatment 60 minutes post-infection); “best survival rate” in [3] (single iv injection of […] 15 minutes post-infection); “delayed the death of the mice to a significant extent” with MRSA (ATCC # 33591) (1 mg/kg (20 min) protocol: five […] iv injections at −10, −5, 0, +5, +10 mins); “no improvement in survivability over the negative control” in the data set with MRSA (ATCC # 33591) (1 mg/kg (2 hr) protocol: five […] iv injections 1 hour apart). In addition, in the data set with MRSA (ATCC # 33591) (5 mg/kg protocol: three 5.5 mg/kg iv injections at −5, +55, +115 mins), the survival of mice result was “no improvement in survivability over the negative control”. For the same molecule, the figures for the “Percentage of Animals Surviving, Treatment” value in the data set with MRSA (ATCC # 33591) (6 hours post-infection) and in the data set on MRSA (ATCC # 33591) (10 hours post-infection) were 70% and 30%, respectively. Also, the “Corrected MIC” value is 4 µg/mL with A. calcoaceticus; greater than 128 µg/mL with E. cloacae; 16 µg/mL in the data set on E. coli; 32 µg/mL in the data set with E. faecalis (E. faecalis EFS001); 8 µg/mL in the data set on E. faecalis (E. faecalis EFS004); 64 µg/mL in the data set with E. faecalis (E. faecalis EFS008). Besides, the “Corrected MIC” value was found to be 2 µg/mL in the data set on S. aureus (S. aureus SA010); 8 µg/mL in the data set on S. aureus (S. aureus SA011); 16 µg/mL in the data set on S. aureus (S. aureus SA014); 64 µg/mL in the data set with S. aureus (S. aureus SA018); 4 µg/mL in the data set with S. aureus (S. aureus SA025); 2 µg/mL with S. aureus (S. aureus SA093). The “Corrected MIC” value in the data set on K. pneumoniae was 128 µg/mL; in the data set with P. aeruginosa, greater than 128 µg/mL; with S. maltophilia, 128 µg/mL; in the data set with S. marcescens, greater than 128 µg/mL.
